The text below walks through data of US20120196751A1, “ANTHRAQUINONE CONTAINING PREPARATIONS/LIGNIN FORMULATIONS” (MARRONE BIO INNOVATIONS, INC., priority 2011, published 2012).

For the test, the system named is Phytophthora capsici. Briefly: Efficacy of WSP and WDG in controlling Phytophthora capsici leaf blight on tomato plants (Example VI). In kind it is in vivo. The following applies: 1.24 g/L; tomato cv Roma; rated 7 days post inoculation. The method, then: Reynoutria sachalinensis extract was formulated as WSP and as WDG. Both formulations were evaluated for their efficacy in controlling Phytophthora leaf blight on tomato. The cv “Roma” was planted in greenhouse till two true leaf stage. The isolate of P. capsici was grown on lima bean media (150 g lima bean was autoclaved in 500 ml water at 121° C. for 0.5 h and filtered through two layers of cheese cloth to remove seed coats. 20 g of agar was added to the filtrate and increase the volume to 1000 ml. The media was autoclaved at 121° C. for 15 min) for 7 days and the sporangia were washed off with sterile water. The sporangia suspension was incubated at room temperature (about 25° C.) for 1-2 h to release zoospores. The suspension was adjusted to 1.0×10^5 spores/ml. There were three single plant replications per treatments. For each treatment, 3 ml treatment/plant was applied with hand held sprayer. After the treatments dried up in a container for incubation, 10 ml of spore suspension was applied uniformly onto all the plants. The container was sealed to maintain high moisture and the plants were incubated at 25° C. in darkness for 3 days. Disease was rated 7 days post inoculation.

As for `COCC(=O)N(c1c(C)cccc1C)[C@H](C)C(=O)OC` [mefenoxam (Ridomil), mefenoxam], the “% Control” value was determined as 95.9% and the “Severity (%, mean)” value turned out to be 2.3%.
